Data: US20070015729A1, “Conjugate of cyclodextrin and poly(oxyethylene), and process for preparation thereof” (priority 2005, published 2007)

Test: TGA (thermogravimetric analysis) of thermal stability
Conditions: FIG. 3, ranking among the three compounds

thermal stability: highest
SMILES: OC[C@H]1O[C@@H]2O[C@H]3[C@H](O)[C@@H](O)[C@@H](O[C@H]4[C@H](O)[C@@H](O)[C@@H](O[C@H]5[C@H](O)[C@@H](O)[C@@H](O[C@H]6[C@H](O)[C@@H](O)[C@@H](O[C@H]7[C@H](O)[C@@H](O)[C@@H](O[C@H]8[C@H](O)[C@@H](O)[C@@H](O[C@H]1[C@H](O)[C@H]2O)O[C@@H]8CO)O[C@@H]7CO)O[C@@H]6CO)O[C@@H]5CO)O[C@@H]4CO)O[C@@H]3CO [β-CD, β-cyclodextrin]
